Compound in one assay: NC(=O)CCCCC1CCSS1 [lipoamide]
As to the kind of experiment: thermal stability z-score vs DMSO; higher = more thermally stabilized by treatment. Conditions: HeLa, lipoamide concentration 100 µM. Here is the method: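 Cellular thermal proteome profiling in HeLa cells. Cells were treated with 100 µM lipoamide for 1 h, with or without 1 mM arsenate for a further 1 h, then heated to ten temperatures (37-66.3 °C), and soluble protein was quantified by TMT mass spectrometry relative to 0.1% DMSO controls. The thermal stability score (sum of log2 fold changes minus the abundance score) was transformed to a z-score; mean of n = 3 experiments.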

Compound in another assay: O=[As]([O-])(O)O.[K+] [potassium arsenate]
The description is as above. Conditions: HeLa; arsenate concentration 1 mM. The procedure:
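Cellular thermal proteome profiling in HeLa cells treated with 1 mM arsenate for 1 h (DMSO pretreatment), heated to ten temperatures (37-66.3 °C). Soluble protein was quantified by TMT mass spectrometry relative to DMSO controls; the thermal stability score was transformed to a z-score; mean of n = 3 experiments.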

The mark [1] stands for this setting: arsenate co-treatment: 1 mM arsenate 1 h.
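Note: each temperature applied for 3 min, abundance score taken as mean log2 fold change at the two lowest temperatures, z-score obtained by mean subtraction and division by SD.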

Chain of UniProt Q96CN9 (Q96CN9 whole entry): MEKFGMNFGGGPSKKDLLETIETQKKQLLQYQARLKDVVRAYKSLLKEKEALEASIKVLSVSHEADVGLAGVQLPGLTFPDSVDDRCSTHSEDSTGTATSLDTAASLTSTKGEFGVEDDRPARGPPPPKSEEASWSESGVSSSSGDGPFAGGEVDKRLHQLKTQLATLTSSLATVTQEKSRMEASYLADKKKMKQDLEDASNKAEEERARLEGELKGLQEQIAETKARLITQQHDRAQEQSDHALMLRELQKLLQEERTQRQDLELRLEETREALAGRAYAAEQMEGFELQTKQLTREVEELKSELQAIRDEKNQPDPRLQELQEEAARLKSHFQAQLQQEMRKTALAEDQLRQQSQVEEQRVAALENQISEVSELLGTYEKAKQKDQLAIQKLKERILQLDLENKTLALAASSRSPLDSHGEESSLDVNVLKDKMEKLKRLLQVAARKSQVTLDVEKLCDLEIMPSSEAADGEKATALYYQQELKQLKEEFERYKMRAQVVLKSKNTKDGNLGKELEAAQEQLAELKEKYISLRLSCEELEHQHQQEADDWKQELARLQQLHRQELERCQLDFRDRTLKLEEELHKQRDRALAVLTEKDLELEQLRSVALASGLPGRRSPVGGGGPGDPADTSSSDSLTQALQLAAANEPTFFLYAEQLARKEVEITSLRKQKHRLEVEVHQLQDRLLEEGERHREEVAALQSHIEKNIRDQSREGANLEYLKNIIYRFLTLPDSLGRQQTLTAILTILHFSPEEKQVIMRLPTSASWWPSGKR
Chain of UniProt Q9H1Z4 (Q9H1Z4 whole entry): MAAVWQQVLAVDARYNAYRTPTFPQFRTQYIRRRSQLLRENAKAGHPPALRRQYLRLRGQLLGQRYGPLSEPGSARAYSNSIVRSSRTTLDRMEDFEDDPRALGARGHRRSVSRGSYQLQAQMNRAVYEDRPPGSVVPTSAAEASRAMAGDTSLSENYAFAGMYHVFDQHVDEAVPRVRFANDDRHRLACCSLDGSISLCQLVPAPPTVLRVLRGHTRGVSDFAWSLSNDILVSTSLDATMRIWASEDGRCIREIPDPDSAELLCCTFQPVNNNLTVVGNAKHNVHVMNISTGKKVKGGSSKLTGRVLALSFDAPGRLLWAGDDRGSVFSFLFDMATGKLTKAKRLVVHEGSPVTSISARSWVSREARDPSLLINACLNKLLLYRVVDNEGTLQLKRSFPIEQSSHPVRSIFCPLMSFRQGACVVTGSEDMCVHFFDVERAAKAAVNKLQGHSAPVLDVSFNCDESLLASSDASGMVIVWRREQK
Chain of UniProt O43709 (O43709 whole entry): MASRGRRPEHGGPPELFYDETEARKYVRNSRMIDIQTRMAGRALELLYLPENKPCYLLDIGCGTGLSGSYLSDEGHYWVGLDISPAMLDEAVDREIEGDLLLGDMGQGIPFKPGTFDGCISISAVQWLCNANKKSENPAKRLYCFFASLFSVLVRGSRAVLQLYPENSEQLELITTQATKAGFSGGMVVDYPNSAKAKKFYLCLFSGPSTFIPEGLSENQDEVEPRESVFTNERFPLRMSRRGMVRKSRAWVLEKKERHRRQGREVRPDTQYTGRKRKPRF
Chain of UniProt Q5VUM1 (Q5VUM1 whole entry): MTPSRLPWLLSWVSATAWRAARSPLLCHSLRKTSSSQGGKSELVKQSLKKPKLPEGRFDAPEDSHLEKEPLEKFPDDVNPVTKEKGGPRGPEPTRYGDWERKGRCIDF
Chain of UniProt P15529 (P15529 whole entry): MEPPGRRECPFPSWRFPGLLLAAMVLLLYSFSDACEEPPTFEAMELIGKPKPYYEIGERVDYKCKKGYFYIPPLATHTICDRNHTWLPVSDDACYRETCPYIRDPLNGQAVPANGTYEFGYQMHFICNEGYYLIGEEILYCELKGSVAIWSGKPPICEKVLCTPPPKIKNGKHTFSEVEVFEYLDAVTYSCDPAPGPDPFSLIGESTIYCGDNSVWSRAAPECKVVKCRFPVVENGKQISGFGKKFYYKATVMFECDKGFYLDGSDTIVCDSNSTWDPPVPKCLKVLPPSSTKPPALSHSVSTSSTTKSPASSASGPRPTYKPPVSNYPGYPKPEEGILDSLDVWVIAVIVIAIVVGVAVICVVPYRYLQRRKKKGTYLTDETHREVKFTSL
Chain of UniProt P26885 (P26885 whole entry): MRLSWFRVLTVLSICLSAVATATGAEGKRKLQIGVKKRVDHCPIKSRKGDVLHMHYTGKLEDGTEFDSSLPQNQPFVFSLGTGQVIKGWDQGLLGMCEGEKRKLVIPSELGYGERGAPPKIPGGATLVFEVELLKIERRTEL
Chain of UniProt Q4G0F5 (Q4G0F5 whole entry): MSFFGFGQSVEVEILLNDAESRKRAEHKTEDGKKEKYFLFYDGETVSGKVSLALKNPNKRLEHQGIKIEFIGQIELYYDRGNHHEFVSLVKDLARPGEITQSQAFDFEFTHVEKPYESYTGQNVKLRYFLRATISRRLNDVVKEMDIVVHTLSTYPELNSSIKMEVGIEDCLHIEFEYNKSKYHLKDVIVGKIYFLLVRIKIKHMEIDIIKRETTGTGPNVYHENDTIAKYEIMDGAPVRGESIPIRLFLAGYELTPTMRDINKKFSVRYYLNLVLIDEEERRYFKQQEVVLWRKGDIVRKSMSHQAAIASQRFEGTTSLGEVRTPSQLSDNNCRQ
Chain of UniProt Q8N697 (Q8N697 whole entry): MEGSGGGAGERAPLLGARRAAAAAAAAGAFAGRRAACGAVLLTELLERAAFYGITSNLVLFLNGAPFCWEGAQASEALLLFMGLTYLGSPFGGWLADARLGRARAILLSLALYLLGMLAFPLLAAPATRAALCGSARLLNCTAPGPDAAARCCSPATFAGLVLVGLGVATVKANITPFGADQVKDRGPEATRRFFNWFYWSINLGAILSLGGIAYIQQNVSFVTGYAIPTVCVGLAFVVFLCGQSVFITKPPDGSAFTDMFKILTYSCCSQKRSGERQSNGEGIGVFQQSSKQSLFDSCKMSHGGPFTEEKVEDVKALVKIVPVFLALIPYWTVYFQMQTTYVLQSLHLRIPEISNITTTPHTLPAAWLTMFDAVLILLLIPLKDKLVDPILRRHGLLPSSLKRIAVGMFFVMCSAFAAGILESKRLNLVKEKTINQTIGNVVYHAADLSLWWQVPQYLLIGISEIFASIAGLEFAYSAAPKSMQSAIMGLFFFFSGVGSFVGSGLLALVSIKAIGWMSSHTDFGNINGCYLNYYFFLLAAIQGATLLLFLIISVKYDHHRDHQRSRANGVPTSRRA
Chain of UniProt Q9BT22 (Q9BT22 whole entry): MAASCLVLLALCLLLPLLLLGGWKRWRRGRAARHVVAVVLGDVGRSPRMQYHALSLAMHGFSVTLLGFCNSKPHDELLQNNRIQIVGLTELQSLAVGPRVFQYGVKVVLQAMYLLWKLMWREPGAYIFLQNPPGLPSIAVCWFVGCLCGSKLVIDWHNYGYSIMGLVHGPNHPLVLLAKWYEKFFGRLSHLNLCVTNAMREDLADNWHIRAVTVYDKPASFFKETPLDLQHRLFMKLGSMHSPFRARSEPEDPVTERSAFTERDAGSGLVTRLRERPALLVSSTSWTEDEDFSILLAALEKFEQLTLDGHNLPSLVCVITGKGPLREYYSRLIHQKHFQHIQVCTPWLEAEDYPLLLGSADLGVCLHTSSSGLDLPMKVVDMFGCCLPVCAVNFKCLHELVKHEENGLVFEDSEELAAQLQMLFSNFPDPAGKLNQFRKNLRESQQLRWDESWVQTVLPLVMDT
Chain of UniProt O60658 (O60658 whole entry): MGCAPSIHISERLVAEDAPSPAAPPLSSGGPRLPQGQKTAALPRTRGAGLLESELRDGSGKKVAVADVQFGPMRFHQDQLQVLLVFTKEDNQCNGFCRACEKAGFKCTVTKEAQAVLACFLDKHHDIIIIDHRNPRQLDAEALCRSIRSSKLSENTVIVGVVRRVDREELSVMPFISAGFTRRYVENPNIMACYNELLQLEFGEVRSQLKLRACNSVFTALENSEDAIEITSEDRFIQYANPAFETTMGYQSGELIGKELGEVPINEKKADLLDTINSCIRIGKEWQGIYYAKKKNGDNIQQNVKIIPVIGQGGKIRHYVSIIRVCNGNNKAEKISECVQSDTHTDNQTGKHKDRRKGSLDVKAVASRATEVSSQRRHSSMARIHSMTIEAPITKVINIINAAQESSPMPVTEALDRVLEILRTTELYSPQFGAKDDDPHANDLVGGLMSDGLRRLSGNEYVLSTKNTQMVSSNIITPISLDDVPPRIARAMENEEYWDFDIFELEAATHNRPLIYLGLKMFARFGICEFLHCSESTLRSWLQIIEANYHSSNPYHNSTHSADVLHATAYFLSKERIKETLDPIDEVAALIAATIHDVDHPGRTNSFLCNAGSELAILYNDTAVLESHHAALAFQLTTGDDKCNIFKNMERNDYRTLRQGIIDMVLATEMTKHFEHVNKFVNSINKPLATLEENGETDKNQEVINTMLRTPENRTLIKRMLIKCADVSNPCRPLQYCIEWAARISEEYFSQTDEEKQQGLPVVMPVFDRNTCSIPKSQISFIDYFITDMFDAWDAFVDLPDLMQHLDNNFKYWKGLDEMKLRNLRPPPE
Chain of UniProt P55735 (P55735 whole entry): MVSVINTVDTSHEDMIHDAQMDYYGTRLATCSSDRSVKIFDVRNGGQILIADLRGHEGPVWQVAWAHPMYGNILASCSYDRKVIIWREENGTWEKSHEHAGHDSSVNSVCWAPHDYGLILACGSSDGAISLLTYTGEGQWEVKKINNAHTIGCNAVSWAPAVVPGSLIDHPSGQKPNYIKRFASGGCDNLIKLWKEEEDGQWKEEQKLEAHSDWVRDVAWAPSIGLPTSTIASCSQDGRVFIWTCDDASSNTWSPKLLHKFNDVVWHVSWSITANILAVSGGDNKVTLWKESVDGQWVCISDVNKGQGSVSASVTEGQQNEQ

Regarding PDE8A (UniProt O60658), the thermal stability z-score with lipoamide (setting [1]) was 0.244; with lipoamide (arsenate co-treatment: none), 0.225; with potassium arsenate, 0.167.

For SLC15A4 (UniProt Q8N697), the thermal stability z-score is 0.836 with lipoamide (setting [1]), 0.0913 in the assay with lipoamide (arsenate co-treatment: none) and -0.239 with potassium arsenate.

For the target ANXA2 (UniProt P07355), the results for the thermal stability z-score in the assay with lipoamide (setting [1]), with lipoamide (arsenate co-treatment: none) and with potassium arsenate were 1.59, 1.79 and 0.066, respectively.

Regarding HAUS4 (UniProt Q9H6D7), the thermal stability z-score with lipoamide (setting [1]) is -0.0376; with lipoamide (arsenate co-treatment: none), 0.0952; in the assay with potassium arsenate, 0.0479.

For STXBP4 (UniProt Q6ZWJ1), the thermal stability z-score was -0.119 with lipoamide (setting [1]), 0.0111 in the assay with lipoamide (arsenate co-treatment: none) and -0.111 with potassium arsenate.

On to ALG13 (UniProt Q9NP73), for which the thermal stability z-score with lipoamide (setting [1]) was 0.336; with lipoamide (arsenate co-treatment: none), 0.571; with potassium arsenate it was -0.739.

Take FKBP2 (UniProt P26885): the thermal stability z-score in the assay with lipoamide (setting [1]) was -3.2; with lipoamide (arsenate co-treatment: none), -3.35; in the assay with potassium arsenate it was 0.177.

GAPVD1 (UniProt Q14C86): the thermal stability z-score with lipoamide (setting [1]) is -0.367; with lipoamide (arsenate co-treatment: none), -0.206; with potassium arsenate it was 0.0188.

Turning to RAPH1 (UniProt Q70E73), the figures for the thermal stability z-score in the assay with lipoamide (setting [1]), with lipoamide (arsenate co-treatment: none) and with potassium arsenate were -0.113, -0.22 and 0.0198, respectively.

For WBSCR22 (UniProt O43709), the thermal stability z-score was -0.223 with lipoamide (setting [1]), -0.46 with lipoamide (arsenate co-treatment: none) and -0.902 with potassium arsenate.

For LPIN2 (UniProt Q92539), the thermal stability z-score in the assay with lipoamide (setting [1]) was determined as 0.528; with lipoamide (arsenate co-treatment: none) it was 0.214; in the assay with potassium arsenate, 0.00612.

On to ZDHHC6 (UniProt Q9H6R6), for which the thermal stability z-score was 0.211 with lipoamide (setting [1]), -0.0578 with lipoamide (arsenate co-treatment: none) and -0.412 with potassium arsenate.

For PCIF1 (UniProt Q9H4Z3), the thermal stability z-score with lipoamide (setting [1]) was 0.0909; with lipoamide (arsenate co-treatment: none) it was 0.207; in the assay with potassium arsenate, -0.0419.

In the case of DIS3L (UniProt Q8TF46), the thermal stability z-score with lipoamide (setting [1]) stood at 0.0339; in the assay with lipoamide (arsenate co-treatment: none), 0.0425; with potassium arsenate, 0.0192.

In the case of MAP3K7 (UniProt O43318), the thermal stability z-score with lipoamide (setting [1]) came to 0.164; with lipoamide (arsenate co-treatment: none) it was 0.123; with potassium arsenate, 0.066.

As for HLA, the thermal stability z-score with lipoamide (setting [1]) was -0.65; with lipoamide (arsenate co-treatment: none), -0.217; with potassium arsenate, -0.138.

Regarding WDR13 (UniProt Q9H1Z4), the thermal stability z-score in the assay with lipoamide (setting [1]) is -0.241; with lipoamide (arsenate co-treatment: none), -0.115; with potassium arsenate, -0.408.

Consider GCC1 (UniProt Q96CN9), for which the thermal stability z-score was -0.192 with lipoamide (setting [1]), -0.169 in the assay with lipoamide (arsenate co-treatment: none) and -0.179 with potassium arsenate.

On to SEC13 (UniProt P55735), for which the thermal stability z-score worked out at 0.378 with lipoamide (setting [1]), 0.46 with lipoamide (arsenate co-treatment: none) and 0.729 with potassium arsenate.

ALG1 (UniProt Q9BT22): the thermal stability z-score with lipoamide (setting [1]) was -0.337; with lipoamide (arsenate co-treatment: none), 0.0286; with potassium arsenate, 0.115.

As to CD46 (UniProt P15529), the figures for the thermal stability z-score with lipoamide (setting [1]), with lipoamide (arsenate co-treatment: none) and in the assay with potassium arsenate were -0.681, -0.571 and -0.443, respectively.

For the target SDHAF4 (UniProt Q5VUM1), the thermal stability z-score is 0.0401 with lipoamide (setting [1]), -0.258 with lipoamide (arsenate co-treatment: none) and -1.53 in the assay with potassium arsenate.

Take VPS26B (UniProt Q4G0F5): the figures for the thermal stability z-score with lipoamide (setting [1]), in the assay with lipoamide (arsenate co-treatment: none) and with potassium arsenate were 0.123, -0.118 and 0.0841, respectively.

Source of the values: the supplement of paper PMC12463676, “Small-molecule dissolution of stress granules by redox modulation benefits ALS models” (Nature Chemical Biology, 2025).
